Measurements: patent US10633389B2, “CARM1 inhibitors and uses thereof” (Epizyme, Inc., priority 2013, dated 2020)

test system: asymmetric di-methyl PABP1 in RKO cells; assay: RKO methylation assay, In Cell Western (ICW) for asymmetric di-methyl PABP1; format: cell-based; settings: Homo sapiens, RKO, Cellular potencies, ICW PABP1me2a
Summary of the method: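 RKO cells treated with compound for 48 h at 37 °C, then fixed, permeabilized and immunostained for asymmetric di-methyl PABP1, with DRAQ5 as DNA stain. Infrared 700/800 nm signal ratio normalized to DMSO and 20 μM reference-compound controls; IC50 from triplicate wells.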

SMILES	IC50
CNCC(O)COc1cccc(-c2nc(N[C@H]3C[C@@H](C(C)(C)O)C3)c(C)c(-c3c(C)noc3C)n2)c1 (stereo partly drawn) [Example 232-1a]	< 5 µM
CNC[C@@H](O)COc1ccc(F)c(-c2nc(-c3c(C)noc3C)c(C)c(N3CC4(CCN(CC(F)F)CC4)C3)n2)c1 [Example 280-3]	< 5 µM
CNC[C@H](O)COc1ccc(Cl)c(-c2nc(-c3c(C)noc3C)c(C)c(N(C)[C@H]3C[C@@](C)(OC)C3)n2)c1 [Example 95-3]	< 5 µM
CCN1CCC[C@@H]1CNc1nc(-c2cc(OC[C@@H](O)CNC)ccc2Cl)nc(-c2c(C)noc2C)c1C [Example 77-3]	< 5 µM
CNC[C@@H](O)COc1ccc(Cl)c(-c2nc(-c3c(C)noc3C)c(C)c(N3CC4(CCN(C(=O)OC)CC4)C3)n2)c1 [Example 109-3]	< 5 µM
CNC[C@H](O)COc1ccc(Cl)c(-c2nc(N[C@H]3C[C@@H](OC)C3)c(C)c(-c3c(C)noc3C)n2)c1 [Example 54-3]	< 5 µM
CNCC(O)COc1cccc(-c2nc(SC)c(C)c(-c3c(C)noc3C)n2)c1 (stereo not drawn) [Example 53-1a]	10 to 20 µM
CNCC(O)COc1cccc(-c2nc(NC3CCOC3)c(C)c(-c3cn(C)nn3)n2)c1 (stereo not drawn) [Example 335-1a]	5 to 10 µM
CNCC(O)COc1cccc(-c2nc(-c3c(C)noc3C)c(C)c(N3CCN(Cc4ccccc4)C(C(F)F)C3)n2)c1 (stereo not drawn) [Example 235-1a]	< 5 µM
CNC[C@H](O)COc1ccc(F)c(-c2nc(-c3c(C)noc3C)c(C)c(N3CCC4(CCN(C(=O)OC)C4)C3)n2)c1 (stereo partly drawn) [Example 106-3]	< 5 µM
CNC[C@@H](O)COc1ccc(Cl)c(-c2nc(NC3CCN(C)CC3(F)F)c(C)c(-c3c(C)noc3C)n2)c1 (stereo partly drawn) [Example 258-3]	< 5 µM
CNC[C@@H](O)COc1ccc(Cl)c(-c2nc(-c3c(C)noc3C)c(C)c(C3CC3)n2)c1 [Example 205-3]	< 5 µM
CNC[C@@H](O)COc1ccc(Cl)c(-c2nc(N[C@@H]3CCN(C4CC4)C[C@@H]3F)c(Cl)c(-c3c(C)noc3C)n2)c1 [Example 211-3]	< 5 µM
CNCC(O)COc1cccc(-c2nc(-c3c(C)noc3C)c(C)c(N3[C@@H]4CC[C@H]3CN(C)C4)n2)c1 (stereo partly drawn) [Example 117-1a]	10 to 20 µM
CNC[C@@H](O)COc1ccc(Cl)c(-c2nc(-c3c(C)noc3C)c(C)c(N3Cc4cn(S(C)(=O)=O)nc4C3)n2)c1 [Example 293-3]	< 5 µM
CNCC(O)COc1cccc(-c2nc(-c3c(C)noc3C)c(C)c(N3CCC4(CC3)CN(C(=O)OC)C4)n2)c1 (stereo not drawn) [Example 251-1a]	< 5 µM
CNCC(O)COc1cccc(-c2nc(-c3c(C)noc3C)c(C)c(N3C[C@H](C)O[C@@H](C)C3)n2)c1 (stereo partly drawn) [Example 199-1a]	< 5 µM
CCOC(=O)N1CCCC(CNc2nc(-c3cccc(OCC(O)CNC)c3)nc(-c3c(C)noc3C)c2C)C1 (stereo not drawn) [Example 194-1a]	< 5 µM
CCS(=O)(=O)N1CCC(Nc2nc(-c3cccc(OCC(O)CNC)c3)nc(-c3c(C)noc3C)c2C)C1 (stereo not drawn) [Example 197-1a]	< 5 µM
CNCC(O)COc1cccc(-c2nc(NC3CCCN(C(=O)C4CC4)C3)c(C)c(-c3c(C)noc3C)n2)c1 (stereo not drawn) [Example 247-1a]	< 5 µM
CNCC(O)COc1cccc(-c2nc(-c3c(C)noc3C)c(C)c(N(C)C3CCN(C(=O)OC)CC3)n2)c1 (stereo not drawn) [Example 89-1a]	< 5 µM
CNC[C@H](O)COc1ccc(Cl)c(-c2nc(NCC3COCCO3)c(C)c(-c3c(C)noc3C)n2)c1 (stereo partly drawn) [Example 96-3]	< 5 µM

SMILES	IC50
CNC[C@@H](O)COc1ccc(Cl)c(-c2nc(NC3CCN(C(=O)OC)CC3)c(C)c(-c3c(C)noc3C)n2)c1 [Example 104-3]	< 5 µM
CNC[C@@H](O)COc1ccc(Cl)c(-c2nc(N[C@H]3C[C@@H](OC)C3)c(C)c(-c3c(C)noc3C)n2)c1 [Example 144-3]	< 5 µM
CNCC(O)COc1cccc(-c2nc(-c3c(C)nn(C)c3C)cc(N(C)C3CCOCC3)n2)c1 (stereo not drawn) [Example 528-1a]	5 to 10 µM
CNCC(O)COc1cccc(-c2nc(N[C@H]3COC(=O)C3)c(C)c(-c3c(C)noc3C)n2)c1 (stereo partly drawn) [Example 267-1a]	10 to 20 µM
CNC[C@@H](O)COc1ccc(Cl)c(-c2nc(-c3c(C)noc3C)c(C)c(N3Cc4nn(C)c(C)c4C3)n2)c1 [Example 252-3]	< 5 µM
CNCC(O)COc1cccc(-c2nc(-c3c(C)noc3C)cc(N3CCN(n4c(C)nnc4C)CC3)n2)c1 (stereo not drawn) [Example 165-1a]	< 5 µM
CNCC(O)COc1cccc(-c2nc(-c3c(C)noc3C)c(C)c(N3CCN(C(=O)OCCF)CC3)n2)c1 (stereo not drawn) [Example 121-1a]	< 5 µM
CNCC(O)COc1ccc(Cl)c(-c2nc(NC[C@H]3CCCO3)c(C)c(-c3c(C)noc3C)n2)c1 (stereo partly drawn) [Example 6-3]	< 5 µM
Cc1noc(C)c1-c1cc(NC2CCOCC2)nc(-c2cccc(OC[C@@H](O)CN)c2)n1 [Example 15-1a]	10 to 20 µM
CNCC(O)COc1cccc(-c2nc(-c3c(C)noc3C)c(C)c(N3CC4(CN(C(=O)N(C)C)C4)C3)n2)c1 (stereo not drawn) [Example 309-1a]	< 5 µM
CNCC(O)COc1cccc(-c2nc(-c3c(C)noc3C)cc(N3CCN(CCOC)CC3)n2)c1 (stereo not drawn) [Example 139-1a]	< 5 µM
CNC[C@@H](O)COc1ccc(F)c(-c2nc(-c3c(C)noc3C)c(C)c(N3CC4(CCN(C(=O)OC(C)C)CC4)C3)n2)c1 [Example 281-3]	< 5 µM
CNCC(O)COc1cccc(-c2nc(C(=O)NC3CCOCC3)c(C)c(C(=O)NC3CCOCC3)n2)c1 (stereo not drawn) [Example 677-1a]	≥ 20 µM
CNCC(O)COc1cccc(-c2nc(NC3CCOCC3)c(C)c(-c3c(CO)noc3C)n2)c1 (stereo not drawn) [Example 256-3]	5 to 10 µM
CNCC(O)COc1cc(Cl)cc(-c2nc(-c3ccnc(N(C)C)c3)cc(N(C)C3CCOCC3)n2)c1 (stereo not drawn) [Example 609-1a]	10 to 20 µM
CNCC(O)COc1cccc(-c2nc(-c3c(C)noc3C)c(C)c(N(C)CC3CCOCC3)n2)c1 (stereo not drawn) [Example 86-1a]	5 to 10 µM
CNC[C@@H](O)COc1ccc(Cl)c(-c2nc(N[C@H]3CCN(C)C[C@H]3F)c(C)c(-c3c(C)noc3C)n2)c1 [Example 147-3]	< 5 µM
CNCC(O)COc1cccc(-c2nc(N[C@@H]3CC[C@@H](O)C3)cc(-c3c(C)noc3C)n2)c1 (stereo partly drawn) [Example 44-1a]	5 to 10 µM
CNCC(O)COc1cccc(-c2nc(NC3CC3)c(C)c(-c3c(C)noc3C)n2)c1 (stereo not drawn) [Example 293-1a]	< 5 µM
CNCC(O)COc1cccc(-c2nc(NC3CCOC3)c(C)c(N3CCN(CC(F)(F)F)CC3)n2)c1 (stereo not drawn) [Example 449-1a]	< 5 µM
CNC[C@@H](O)COc1ccc(Cl)c(-c2nc(-c3c(C)noc3C)c(C)c(N3Cc4cn[nH]c4C3)n2)c1 [Example 231-3]	< 5 µM
CNC[C@@H](O)COc1ccc(Cl)c(-c2nc(-c3c(C)noc3C)c(C)c(N3CCC4(CN(C(=O)OC)C4)C3)n2)c1 [Example 177-3]	< 5 µM

SMILES	IC50
CNCC(O)COc1cccc(-c2nc(N[C@@H]3CCN(C(=O)OC)C[C@H]3F)c(C)c(-c3c(C)noc3C)n2)c1 (stereo partly drawn) [Example 228-1a]	< 5 µM
CNCC(O)COc1cccc(-c2nc(NC3CCN(C(=O)OC)CC3)c(Cl)c(-c3c(C)noc3C)n2)c1 (stereo not drawn) [Example 202-1a]	< 5 µM
CNCC(O)COc1cccc(-c2nc(N3CC4CCC(C3)O4)cc(N(C)C3CCOCC3)n2)c1 (stereo not drawn) [Example 566-1a]	10 to 20 µM
CNC[C@@H](O)COc1ccc(Cl)c(-c2nc(-c3c(C)noc3C)c(C)c(N3CCC4(CC3)CN(C3CC3)C4)n2)c1 [Example 158-3]	< 5 µM
CNCC(O)COc1cccc(-c2nc(-c3c(C)noc3C)c(C)c(N3C[C@H]4CC[C@@H](C3)N4C)n2)c1 (stereo partly drawn) [Example 116-1a]	5 to 10 µM
CCOC(=O)N1CC[C@@H](Nc2nc(-c3cccc(OCC(O)CNC)c3)nc(-c3c(C)noc3C)c2C)[C@@H](F)C1 (stereo partly drawn) [Example 226-1a]	< 5 µM
CNCC(O)COc1cccc(-c2nc(NC[C@@H]3CN(C(=O)OC)CCO3)c(C)c(-c3c(C)noc3C)n2)c1 (stereo partly drawn) [Example 306-1a]	< 5 µM
CCO[C@H]1CCC[C@H]1N(CC)c1nc(-c2cc(OC[C@H](O)CNC)ccc2Cl)nc(-c2c(C)noc2C)c1C [Example 255-3]	5 to 10 µM
CNCC(O)COc1cccc(-c2nc(N[C@@H]3C[C@H]4CC[C@@H](C3)N4C(=O)OC)c(C)c(-c3c(C)noc3C)n2)c1 (stereo partly drawn) [Example 265-1a]	< 5 µM
CCS(=O)(=O)N1CCCC(Nc2nc(-c3cccc(OCC(O)CNC)c3)nc(-c3c(C)noc3C)c2C)C1 (stereo not drawn) [Example 204-1a]	< 5 µM
CNCC(O)COc1cccc(-c2nc(NC3CCOC(C)(C)C3)c(C)c(-c3c(C)noc3C)n2)c1 (stereo not drawn) [Example 290-1a]	< 5 µM
C=C(C)c1cc(N(C)C2CCOCC2)nc(-c2cc(Cl)cc(OCC(O)CNC)c2)n1 (stereo not drawn) [Example 619-1a]	10 to 20 µM
CNCC(O)COc1cccc(-c2nc(N[C@@H]3CCOC3)c(C)c(N3CCC4(CCNCC4)CC3)n2)c1 (stereo partly drawn) [Example 429-1a]	10 to 20 µM
CNCC(O)COc1cccc(-c2nc(N[C@@H]3CCOC3)c(C)c(N3CCN(C(C)=O)C(C)(C)C3)n2)c1 (stereo partly drawn) [Example 439-1a]	5 to 10 µM
CNCC(O)COc1cccc(-c2nc(N(C)C3CCOCC3)c(C)c(N3CCNC[C@@H]3C)n2)c1 (stereo partly drawn) [Example 567-1a]	10 to 20 µM
CNCC(O)COc1cc(Cl)cc(-c2nc(N(C)C3CCOCC3)c(C)c(-n3cccn3)n2)c1 (stereo not drawn) [Example 618-1a]	10 to 20 µM
CCS(=O)(=O)N1CC2(CCCN(c3nc(-c4cccc(OCC(O)CNC)c4)nc(-c4c(C)noc4C)c3C)C2)C1 (stereo not drawn) [Example 296-1a]	5 to 10 µM
CNCC(O)COc1cccc(-c2nc(N3CCN(CCF)[C@@H](C)C3)cc(N(C)C3CCOCC3)n2)c1 (stereo partly drawn) [Example 578-1a]	10 to 20 µM
CNCC(O)COc1cccc(-c2nc(N3CCO[C@H](CN)C3)cc(N(C)C3CCOCC3)n2)c1 (stereo partly drawn) [Example 524-1a]	5 to 10 µM
CNCC(O)COc1cccc(-c2nc(NC3CCN(C(=O)OC(C)(C)C)C[C@H]3F)c(C)c(-c3c(C)noc3C)n2)c1 (stereo partly drawn) [Example 208-1a]	< 5 µM
CNCC(O)COc1cccc(-c2nc(-c3c(C)noc3C)cc(N3CCN(CC(F)(F)F)[C@@H](C)C3)n2)c1 (stereo partly drawn) [Example 104-1a]	< 5 µM
CNCC(O)COc1cccc(-c2nc(-c3c(C)noc3C)cc(N(C)CC3CCOCC3)n2)c1 (stereo not drawn) [Example 87-1a]	< 5 µM
